Test results reported in paper PMC3128364 (Journal of Clinical Biochemistry and Nutrition, 2011).

Molecular target: T1, intestinal maltase
T1 construct: gene Mgam; native, crude extract of rat intestinal acetone powder (Sigma)
Assay: glucose release from maltose, glucose oxidase kit
Type: biochemical, Rattus norvegicus
Conditions: 37 mM maltose (70 µL), 0.1 M phosphate pH 6.9, 37 °C, 30 min

SMILES | IC50
C[C@H]1O[C@H](O[C@H]2[C@H](O)[C@@H](O)[C@@H](O[C@H]3[C@H](O)[C@@H](O)C(O)O[C@@H]3CO)O[C@@H]2CO)[C@H](O)[C@@H](O)[C@@H]1N[C@H]1C=C(CO)[C@@H](O)[C@H](O)[C@H]1O (some centres unmarked) [Acarbose] | 2.7 ± 0.1 µM
C[C@@H]1O[C@@H](OC[C@H]2O[C@@H](Oc3cc4c(O)cc(O)cc4[o+]c3-c3ccc(O)c(O)c3)[C@H](O)[C@@H](O)[C@@H]2O)[C@H](O)[C@H](O)[C@H]1O [C3R, cyanidin-3-rutinoside] | 2320 µM
